Test results taken from patent US20040141912A1, “Method for targeting chemical compounds to cells and pharmaceutical compositions used therein” (priority 2001, published 2004).
“Also recorded” adds a separate entry of the source.

Columns and labels:
Assay type in all cases: cell-based, human
[1] = tested on: activated platelets; test: FACS analysis of DDC uptake by control and activated platelets
Procedure: FIG. 6: Control and activated platelets were co-incubated with DDC (at a final concentration of 5 μM under three different conditions: no further treatment; Ca^2+-deprivation due to incubation with BAPTA and EGTA; and restoration of Ca^2+ following re-addition of Ca^2+ and calcium-ionophore A23187. Platelets were then subjected to FACS analysis.
The selective binding of DDC to activated platelets was determined using flow cytometric (FACS) analysis. Platelet rich plasma was obtained from healthy volunteers. 10^9 fresh platelets were centrifuged (5 minutes, 380×g), washed and re-suspended in Tyrode's buffer (137 mM NaCl; 2.8 mM KCl; 1 mM MgCl2, 12 mM NaHCO3; 0.4 mM Na2HPO4; 5.5 mM D-glucose and 10 mM Hepes pH 7.4; 0.35% BSA). Control platelets were kept on ice.
For activation, 200 μl of washed platelets were incubated with the calcium ionophore A23187 in the presence of 5 mM of CaCl2, at room temperature. Following incubation, platelets were centrifuged (2 min., 10^4 rpm) and re-suspended in 1 ml of Tyrode's buffer. Activated platelets were subsequently incubated with 5 μM of DDC for 5 minutes at room temperature, under three different conditions: (i). without any further treatment; (ii). under conditions of Ca^2+-deprivation, induced by 20 μM of BAPTA and 1 mM of EGTA (for 30 min. at 4° C.); (iii). upon restoration of Ca^2+, wherein platelet intracellular Ca^2+ levels were replenished by addition of 1 mM of CaCl2 and 2 μM of the calcium ionophore A23187. Non-activated platelets served as control. Platelets were subjected to flow cytometric (FACS) analysis using Becton-Dickinson cell sorter and CellQuest software. Excitation was at 360 nm and emission was measured at 530 nm.

[2] = tested on: Jurkat cells; test: FACS analysis of DDC uptake by Jurkat cells induced to undergo apoptosis by anti-Fas antibody (PI co-staining)
[3] = tested on: Jurkat cells; test: FACS analysis of NST830 uptake by Jurkat cells induced to undergo apoptosis by anti-Fas antibody (PI co-staining); settings: upper right quadrant
Procedure: FIG. 7 Jurkat cells were induced to undergo apoptosis by anti-Fas Ab treatment as described for FIG. 3 above. Subsequently, cells were incubated with 50 μM of NST830 for 5 minutes, co-stained with PI and subjected to FACS analysis. In order to inhibit PLS in apoptotic cells, two approaches were used:
(i). Ca^2+-deprivation: apoptotic cells were incubated for 30 min at room temperature in the presence of BAPTA (20 μM) and EGTA (1 mM), and then treated with NST830 and PI as above.
(ii). PLS inhibition by rottlerin: prior to treatment with NST830 and PI, apoptotic cells were incubated for 40 min in the presence of 0.5 μM of rottlerin, and then submitted to FACS analysis.
Cultured Jurkat cells were induced to undergo apoptosis by anti-Fas antibody (0.1 μg/ml) for 2.5 hours, as described in Example 1. Subsequently, both control and apoptotic cells were incubated with 50 μM of NST830 for 5 minutes, and uptake was measured by FACS. Prior to FACS analysis, cells were also co-stained with PI. Induction of apoptosis was associated with the emergence of a large, distinct population of 64% of cells in the early stages of the apoptotic process, selectively binding NST830 and occupying the right lower quadrant of the plot. No substantial change was observed under these conditions in the percentage of cells in late apoptosis, that are unselectively permeable to PI and NST830. […]

SMILES: CN(C)c1cccc2c(S(=O)(=O)NC(CSSCC(NS(=O)(=O)c3cccc4c(N(C)C)cccc34)C(=O)O)C(=O)O)cccc12 (centres unmarked) [DDC]
- DDC uptake (fluorescence intensity), activated platelets under Ca2+-deprivation ([1]; BAPTA 20 μM + EGTA 1 mM, 30 min, 4° C.): markedly reduced DDC uptake; also recorded: uptake of DDC was inhibited
- DDC uptake (fluorescence intensity), activated platelets upon restoration of Ca2+ ([1]; CaCl2 1 mM + A23187 2 μM after deprivation): completely restored; also recorded: fluorescence returned to the high values
- DDC uptake (fluorescence intensity), activated platelets ([1]; activated with A23187 + 5 mM CaCl2, DDC 5 μM, 5 min): significant shift to higher fluorescence values; also recorded: marked enhancement of fluorescence as compared to controls; also recorded: marked shift to higher fluorescence levels; also recorded: marked shift to higher fluorescence intensity
- DDC binding by cells in early apoptosis with pan-caspase inhibitor ([2]; anti-Fas 3 h + Z-VAD-fmk 50 μM, DDC 50 μM 5 min): abolished this DDC binding
- DDC binding by cells in early apoptosis (peak B) ([2]; anti-Fas 3 h without Z-VAD-fmk, DDC 50 μM 5 min): marked DDC binding
- DDC binding to cells in the late stages of apoptosis (peak C) with pan-caspase inhibitor ([2]; anti-Fas + Z-VAD-fmk 50 μM): no significant alterations
- NST830-binding, PI-permeable late apoptotic cells upon Ca2+-deprivation ([3]; BAPTA + EGTA): unaffected
- NST830-binding, PI-permeable late apoptotic cells in the presence of rottlerin ([3]; rottlerin 0.5 μM): no change was detected
